Assay: in vitro
Conditions: human, hepg2-a16-cd81egfp cells
Note: reference of the scale not given here.

Row | Structure (SMILES) | viability at 3 µM (% viability) [%] | viability at 3 µM [%]
1 | CC(C)(C)CC(C)(C)c1ccc(O)c(Cc2ccc(Cl)cc2Cl)c1 [NCGC00095016] | 93.1 | 
2 | COc1cc(C2NCc3ccccc3-n3cccc32)ccc1O (stereo not drawn) [MLS000047988] | 102 | 
3 | O=C(CSc1nc(Nc2ccccc2)nc(N2CCOCC2)n1)Nc1cc(Cl)ccc1O [MLS001035450] | 85.3 | 
4 | COc1ccccc1-c1cc(C(=O)N2CCN(S(=O)(=O)c3ccc(C)cc3)CC2)[nH]n1 [MLS000924750] | 96.6 | 
5 | CCOC(=O)c1c(CN(C)C)oc2cc(CN(C)C)c(O)c(CSc3ccccc3)c12 [MLS000038262] | 104 | 
6 | O=C(/C(=C/c1ccc(Cl)cc1)c1nc2ccccc2[nH]1)c1cccs1 [MLS000565128] | 79.2 | 
7 | CCOC(=O)c1c(CN2CCN(c3ccccc3)CC2)oc2cc(Br)c(O)cc12 [MLS001198242] | 90.6 | 
8 | CC1(C)Cc2ccccc2C2=NNC(=O)C2=N1 [MLS000709658] | 94.5 | 
9 | O=C(Nc1ccncc1)Nc1cccc(Cl)c1Cl [MLS001224778] | 96.5 | 
10 | CCNc1nc(C#N)nc2c1ncn2-c1cc(F)cc(F)c1 [MLS002471787] | 99.9 | 
11 | CN(C)Cc1c(O)ccc2oc(Cc3ccccc3)cc12 [MLS000039159] | 89.6 | 
12 | C=C1C(=O)O[C@@H]2C[C@@H](C)[C@@H]3C=CC(=O)[C@@]3(C)[C@@H](OC(=O)CC(=O)O[C@H]3[C@@H]4C(=C)C(=O)O[C@@H]4C[C@@H](C)[C@@H]4C=CC(=O)[C@]43C)[C@H]12 [MLS000728515] |  | 16.4
13 | CC[C@@H](C(=O)[C@@H](C)[C@@H](O)[C@H](C)CCc1ccc(C)c(O)c1C(=O)O)[C@H]1O[C@](CC)([C@H]2CC[C@](O)(CC)[C@H](C)O2)C[C@@H]1C [NCGC00095029] | 27.3 | 
14 | CC(=O)N(C)C1=C(N2CCOCC2)C(=O)c2ccccc2C1=O [MLS000570886] | 96.1 | 
15 | CCOc1ccc2c(c1)OC(c1ccc(C)cc1)(C(F)(F)F)NC2=O (stereo not drawn) [MLS000392832] | 63.5 | 
16 | O=C(NC1=C(Nc2ccc(F)cc2)C(=O)c2ccccc2C1=O)c1ccc(Cl)cc1 [MLS000375026] | 97 | 
17 | Oc1cc(/C=C/c2c(F)cccc2Cl)nc2ccccc12 [MLS000862522] | 102 | 
18 | CNc1ccc2oc(C[C@@H]3OC4(CC[C@@H]3C)O[C@H]([C@@H](C)C(=O)c3ccc[nH]3)[C@H](C)C[C@H]4C)nc2c1C(=O)O (stereo partly drawn) [NCGC00161647] | 12.5 | 
19 | O=C(CCc1ccccc1)NC(c1cccs1)c1cc(Cl)c2cccnc2c1O (stereo not drawn) [MLS000703748] | 54 | 
20 | Cc1ccc(C(=O)N/N=C/c2ccc([N+](=O)[O-])s2)cc1 [MLS000519463] | 95.4 | 
21 | O=[S+]([O-])(c1ccc(Cl)cc1)N1CCN(C(=S)Nc2ccc(F)c(Cl)c2)CC1 [NCGC00345140] | 85.6 | 

Row | Structure (SMILES) | viability at 3 µM (% viability) [%] | viability at 3 µM [%]
22 | N=c1ccn(CC(=O)c2ccc(-c3ccccc3)cc2)cc1 [MLS000698051] | 53.4 | 
23 | COc1ccc2nc(N3CCN(C(=O)c4ccc([N+](=O)[O-])o4)CC3)sc2c1 [MLS001234236] | 89.3 | 
24 | Cc1ccc(Nc2cc(C)nc(NCc3ccccc3)n2)cc1 [MLS000574704] | 80.6 | 
25 | FC(F)(F)c1cccc(Nc2nc3nonc3nc2Nc2ccc(Cl)cc2)c1 [NCGC00100377] | 47.1 | 
26 | COc1ccc(C)cc1Nc1nc(N)c2cc(OC)c(OC)cc2n1 [NCGC00107383] | 94.9 | 
27 | Cc1cc(N2CCC(C)CC2)nc(-n2nc(C)cc2C)n1 [MLS000109839] | 98.6 | 
28 | Cc1ccc(-c2cc(C(=O)Nc3ccc(S(=O)(=O)N4CC(C)OC(C)C4)cc3)[nH]n2)c(O)c1 (stereo not drawn) [MLS000779230] | 89.2 | 
29 | C=CCNC(=S)N1CCN(c2ccc([N+](=O)[O-])cc2)CC1 [MLS000581348] | 99.6 | 
30 | Cc1ccc(-c2c(C(=O)N/N=C/c3cccc(Cl)c3)nnn2-c2nonc2N)cc1 [MLS001139410] | 92.2 | 
31 | CC(C)(C)N1C(=O)c2ccc(C(=O)Nc3ccc(-c4nc5ccccc5[nH]4)cc3)cc2C1=O [MLS000567491] | 104 | 
32 | Clc1ccc2c(N/N=C/c3ccc(Br)cc3)ccnc2c1 [MLS000589586] | 104 | 
33 | COc1ccc(-n2nc3c(c2NC(=O)CCl)CSC3)cc1 [MLS001066697] | 98.9 | 
34 | CCc1ccccc1OC[C@@H](O)CN[C@H]1CCCc2ccccc21 [MLS002172481] | 97.6 | 
35 | O=C1c2ccccc2CCc2ccc(B(O)O)cc21 [NCGC00183917] | 82.4 | 
36 | O=C(Nc1nc(-c2ccccn2)cs1)c1cccc(S(=O)(=O)N2CCOCC2)c1 [MLS002161290] | 62.2 | 
37 | CCN1CCN(Cc2ccc(NC(=O)c3cc(NC(=O)c4cc(-c5ccc(OC)cc5)n[nH]4)cc(OC)c3)cc2C(F)(F)F)CC1 [MLS000911571] | 97 | 
38 | COc1ccc(Cl)cc1NC(=O)c1cc(-c2cc(C)ccc2O)[nH]n1 [MLS000779126] | 108 | 
39 | C=C(C)COc1ccc(-c2n[nH]cc2-c2ccc(OC)c(OC)c2)c(O)c1 [MLS000084580] | 42.4 | 
40 | CC(NCc1ccccc1O)C12CC3CC(CC(C3)C1)C2 (stereo not drawn) [MLS001173343] | 97.5 | 
41 | CCN(CC)C1=NC(=[N+](CC)CC)c2ccccc21.[O-][Cl+3]([O-])([O-])O [MLS000565348] | 83.4 | 
42 | COc1cccc(C2C3=C(N=c4sc(=Cc5ccccc5O)c(=O)n42)c2ccccc2CC3)c1OC (stereo not drawn) [MLS000580951] | 92.9 | 

Row | Structure (SMILES) | viability at 3 µM (% viability) [%] | viability at 3 µM [%]
43 | Nc1nonc1-n1nnc(C(=O)N/N=C/c2ccc(Cl)cc2)c1-c1ccc2c(c1)OCO2 [MLS001142698] | 104 | 
44 | N#Cc1ccc(NC(=O)Nc2ccc(Cl)cc2)cc1 [MLS000104525] | 77.8 | 
45 | OC(CNCC1CCCO1)Cn1c2ccc(Cl)cc2c2cc(Cl)ccc21 (stereo not drawn) [MLS000525403] | 90.7 | 
46 | CC(C)(C)Nc1nc(NC(C)(C)C)nc(-n2ccnc2)n1 [MLS000044025] | 90.9 | 
47 | O[C@@H]1[C@@H](O)C=C2CCN3Cc4cc5c(cc4[C@H]1C23)OCO5 (stereo partly drawn) [MLS002153955] | 77.4 | 
48 | COc1cc(O)c(C(CCN2CCCCC2)c2ccc(N(C)C)cc2)c(OC)c1 (stereo not drawn) [MLS000879496] | 92.4 | 
49 | c1ccc(Nc2cc3c(cn2)CN(Cc2ccc4[nH]ccc4c2)CCN3)cc1 [NCGC00411105] | 49.4 | 
50 | c1ccc2sc(Sc3ncnc4sccc34)nc2c1 [MLS000334432] | 96.9 | 
51 | C=C(C)CSc1nc2sc3c(c2c(=O)n1-c1ccccc1)CCN(C)C3 [MLS001173616] | 98.7 | 
52 | COc1ccc2cc3cc(C(=O)NCC4CCCO4)oc3nc2c1 (stereo not drawn) [MLS000091914] | 106 | 
53 | Cc1ccc(/C=N/NC(=O)c2nnn(-c3nonc3N)c2-c2ccc3c(c2)OCO3)s1 [MLS001142659] | 90.4 | 
54 | O=C(Nc1nc(-c2ccccn2)cs1)c1cccc(-n2cnnn2)c1 [MLS000770597] | 63.7 | 
55 | CC(C)Nc1ccc(Nc2ccnc3cc4ccccc4cc23)cc1 [MLS000766754] | 83.9 | 
56 | Clc1ccc(CCC(Cn2ccnc2)Sc2c(Cl)cccc2Cl)cc1 (stereo not drawn) [NCGC00179596] | 100 | 
57 | Cc1ccc(Nc2cc(C)c3ccc(O)cc3n2)cc1C [MLS000674791] | 92.2 | 
58 | CCOC(=O)c1nc2cc3n(c(CC(C)C)c-2c1C)CC(C)=C3C [MLS000594428] | 105 | 
59 | Cc1cc(O)c(CN2CCN(S(=O)(=O)c3cccs3)CC2)cc1C(C)C [MLS002157185] | 92.3 | 
60 | CN(C)c1nc(-c2ccccn2)nnc1-c1ccccc1 [MLS000541553] | 86.2 | 
61 | COc1ccccc1[C@@]1(C)ON(c2ccccc2C(F)(F)F)C1=O [MLS002206613] | 88.4 | 
62 | CCOc1cccc(CNCCc2c(C)[nH]c3ccc(OC(F)(F)F)cc23)c1O [MLS001198351] | 70.5 | 
63 | O=C(Nc1ccc2c(N3CCOCC3)ncnc2c1)c1cccc(Br)c1 [NCGC00425561] | 49.3 | 

Row | Structure (SMILES) | viability at 3 µM (% viability) [%] | viability at 3 µM [%]
64 | Oc1c(Cl)cc(Cl)cc1CN1CCN(Cc2ccccc2)CC1 [MLS000106505] |  | 92
65 | CCc1nc(N)nc(N)c1-c1ccc(Cl)cc1 [NCGC00023188] | 95.9 | 
66 | N#Cc1c2c(c(NCc3ccco3)n3c1nc1ccccc13)CCC2 [MLS000109113] | 97.7 | 
67 | Oc1ccc(Br)cc1CN1CCN(c2ccccc2)CC1 [MLS000106609] |  | 99.8
68 | O=C(CCl)Nc1cccc(-c2cnc3ccccc3n2)c1 [MLS000541295] | 88.6 | 
69 | O=C1C=C(c2cccc(CO)c2)C[C@@H](c2ccc(Cl)cc2)C1 [MLS002302575] | 102 | 
70 | CCCC(C)C(=O)Nc1ncc(S(=O)(=O)c2ccc([N+](=O)[O-])cc2)s1 (stereo not drawn) [MLS001034555] | 94 | 
71 | O=C(O)c1cc(-c2ccccc2)cc(-c2ccccc2)[n+]1Cc1ccccc1 [MLS001240915] | 98.5 | 
72 | CNc1ccc2oc(C[C@H]3O[C@@]4(CC[C@H]3C)O[C@H]([C@H](C)C(=O)c3ccc[nH]3)[C@H](C)C[C@H]4C)nc2c1C(=O)O [MLS001056783] | 19.2 | 
73 | C=C[C@]1(C)C[C@@H](OC(=O)CSC(C)(C)CNC(=O)[C@H](N)C(C)C)[C@]2(C)[C@H](C)CC[C@]3(CCC(=O)[C@H]32)[C@@H](C)[C@@H]1O [NCGC00167968] | 87.5 | 
74 | CCn1cnc2c(Nc3cc(F)cc(F)c3)nc(C#N)nc21 [NCGC00181918] | 79.4 | 
75 | COc1ccc(-n2nc(C(=O)NCC(=O)N3CCN(c4ccccc4OC)CC3)c3ccccc3c2=O)c(OC)c1 [MLS000936211] | 90.4 | 
76 | Cc1ccc(-c2nn(-c3ccccc3)c3[nH]c(=O)c(CNCc4ccccc4)cc23)cc1 [MLS000067457] | 95.4 | 
77 | Clc1ccc(NNc2ccnc3cc(Cl)ccc23)cc1 [MLS000537447] | 90.3 | 
78 | CCN(CC)CCN1C(=O)c2ccccc2NC1c1ccc(Br)cc1 (stereo not drawn) [MLS000723891] | 87.8 | 
79 | CCOc1ccc(-n2c(SCC(N)=O)nc3sc4c(c3c2=O)CCN(C)C4)cc1 [MLS000332254] | 95.7 | 
80 | Cc1ccc(Cl)cc1NC(=O)c1cc2ccccc2cc1O [MLS000738149] | 74 | 
81 | CCN1CCN(Cc2ccc(NC(=O)c3cc(NC(=O)c4cc5cccc(OC)c5o4)cc(OC)c3)cc2C(F)(F)F)CC1 [MLS000911573] | 94.8 | 
